Starred links: 1 amine or outer side, 2 acyl side, 3 side chain; linkers in the order of their positions; H or OH if unused. Positions of bridges follow the written chain, without caps; N, C: chain ends. Non-standard residues stand in square brackets, D forms with d. Residues, ends and D or L forms follow the SMILES beside them. Chains are numbered I, II in the order given. X1 = O=C(O)C[C@@H](C(=O)[*:2])N(c1ccc([N+](=O)[O-])c2nonc12)[*:1]; Nle = CCCC[C@H](N)C(=O)O; Aib = CC(C)(N)C(=O)O
Columns and labels:
PANC-1 cells [1] = experiment: Membrane perturbation assay; type: cell-based; settings: PI 3.5 µM, 30 min, 37 °C, CLSM, n = 28–58 cells
HeLa cells [2] = experiment: Membrane perturbation assay; type: cell-based; settings: PI 3.5 µM, 30 min, 37 °C, CLSM, n = 37–65 cells
sEVs = settings: previous data; cited from earlier work
EVs = settings: placed in cultured media without separation steps; cited from earlier work
cancer cells = experiment: sEV drug-loading system with a hydrophobic compound; type: cell-based; settings: compound loaded onto sEVs; data not shown
ζ-potential measurement = type: physicochemical; settings: non- and DiD-labeled MSC-sEVs; Zetasizer Nano ZS, 25 °C; n = 5
MSC-sEVs = experiment: sEV binding of 2 in solution in the presence of heparin; settings: heparin 100 or 500 µg/mL; n = 3
PANC-1 cells [3] = experiment: Cellular uptake by CLSM; type: cell-based; settings: 2 at 1 µM alone, 37 °C, more than 1 h
[4] = system: sEV-mimicking liposomes (POPC:cholesterol:POPS = 75:15:10 mol%); experiment: Peptide binding to sEV-mimicking liposomes; settings: ratio of Kd values for sEV-mimicking liposomes
HeLa cells [5] = experiment: Cellular uptake by CLSM; type: cell-based; settings: 2 at 1 µM alone, 37 °C, more than 1 h

Molecule	ratio of the dead cells stained by PI (PANC-1 cells [1])	ratio of the dead cells stained by PI (HeLa cells [2])	also measured
CO [MeOH]	97.3%	96.5%	
CCCC[C@H](NC(=O)[C@H](CCCCN)NC(=O)[C@H](CO)NC(=O)[C@H](CC(C)C)NC(=O)C(C)(C)NC(=O)[C@H](CC(=O)O)NC(=O)[C@@H](NC(=O)C(C)(C)NC(=O)[C@H](CCCCN)NC(=O)[C@H](CC(N)=O)NC(=O)[C@H](CC(C)C)NC(=O)[C@H](CCCC)NC(=O)[C@H](CCCCN)NC(=O)[C@H](CC(C)C)NC(=O)[C@H](CC(C)C)NC(=O)C(C)(C)NC(=O)[C@H](CCCCN)NC(=O)[C@H](CC(=O)O)Nc1ccc([N+](=O)[O-])c2nonc12)[C@@H](C)O)C(=O)NCC(=O)N[C@@H](CO)C(=O)NCC(=O)N[C@@H](CO)C(=O)N[C@@H](CCCCN)C(N)=O [Peptide 1] (HELM PEPTIDE1{[O=C(O)C[C@H](Nc1ccc([N+](=O)[O-])c2nonc12)C(=O)[*:2]].K.[Aib].L.L.K.[Nle].L.N.K.[Aib].T.D.[Aib].L.S.K.[Nle].G.S.G.S.K.[am]}$$$$V2.0)			amount of peptide bound at the plateau level (sEVs): 1,361 peptides/vesicle; time to selective binding to EVs (EVs): ≤ 5 min
CC[C@@]1(O)C(=O)OCc2c1cc1n(c2=O)Cc2cc3ccccc3nc2-1 [camptothecin]			performance of the sEV drug-loading system (cancer cells): did not work effectively
DKBLLKXLNKBTDBLSKX-GSGS-C-NH2 (disulfide) [2′]			change of ζ-potential of sEVs in the presence of the peptide (ζ-potential measurement): slight increase in ζ-potential
Heparin			fluorescence intensity of NBD of 2 in the presence of MSC-sEVs in solution (MSC-sEVs): did not influence
I: H-[X1]K[Aib]LLK[Nle]LNK[Aib]TD[Aib]LSK[Nle]GSGSC-NH2 / II: H-[X1]K[Aib]LLK[Nle]LNK[Aib]TD[Aib]LSK[Nle]GSGSC-NH2 (disulfide I:23-II:23) [Peptide 2]			NBD signals in cells in the absence of DiD-MSC-sEVs (uptake of peptide alone) (PANC-1 cells [3]): negligible; affinity relative to that of 1 [4]: 15.7 fold; NBD signals in cells in the absence of DiD-MSC-sEVs (uptake of peptide alone) (HeLa cells [5]): negligible
biotin-DKBLLKXLNKBTDBLSKX-GSGS-C-NH2 | biotin-DKBLLKXLNKBTDBLSKX-GSGS-C-NH2 (disulfide) [Peptide 8]	1.9%	0.0%	
biotin-IWIAQELRRIGDEFNZYYAZR-NH2 (sidechain bridge or staple) [Peptide 10]	7.1%	4.5%	
biotin-LSQETFZ’DLWKLLZEN-NH2 (sidechain bridge or staple) [Peptide 9]	3.3%	6.5%	

Reference: article doi:10.1101/2025.08.06.669005v1 (bioRxiv, 2025)
